Values quoted from earlier work, collected in patent US20260240770A1, “LIQUID FORMULATION COMPRISING TRILOSTANE” (NORBROOK LABORATORIES LIMITED, priority 2023, published 2026).

Conditions: low water solubility and high membrane permeability

BCS class: Class Two
SMILES: C[C@]12CC[C@H]3[C@@H](CC[C@@]45O[C@@H]4C(O)=C(C#N)C[C@]35C)[C@@H]1CC[C@@H]2O [Trilostane, 4α,5-epoxy-3,17β-dihydroxy-5α-androst-2-ene-2-carbonitrile]
